Data taken from patent publication US4293549A, “Quinolinyl guanidines having antiinflammatory, analgesic or antipyretic activity” (Leo Pharmaceutical Products Ltd. A/S (Lovens Kemiske Fabrik, priority 1977, dated 1981).
pIC50: −log10 of the molar value.

Assays:
[1] = Antipyretic effect in rats; type: in vivo; settings: over 180 min
Procedure: The compounds were orally administered and the antipyretic index evaluated over 180 min. of the experiment.

stomachs = assay: Gastro ulcerogenic activity in rats; type: in vivo; settings: 24 hrs; for Mean severity: scale 0=no lesion to +4=perforation
Procedure: Rats fasted for 9 hrs before treatment were given different doses of the compounds. 24 hrs later the animals were killed, the stomachs were removed, opened along the lesser curvature and gross examined for the presence of lesions and their severity. The severity was assessed according to an arbitrary scale from 0=no lesion to +4=perforation.

pain threshold = assay: Analgetic effect in rats (Randall and Selitto); type: in vivo; settings: 2 hrs after administration
[2] = tested on: adjuvant induced arthritis; assay: Inhibition of adjuvant induced arthritis in rats; type: in vivo
Excerpt: The compounds were orally administered suspended in 0.5% carboxymethylcellulose, daily, from the day of adjuvant injection to 28 days later.

prostaglandin synthetase = target: T1, prostaglandin synthetase (Bos taurus, UniProt O62664); assay: Inhibition of prostaglandin synthetase (bovine seminal vesicle homogenate); type: biochemical; settings: lyophilized high speed precipitate of bovine seminal vesicle homogenate
T1 construct: lyophilized high speed precipitate of bovine seminal vesicle homogenate as enzyme; from tissue; host or cells: bovine seminal vesicle homogenate, lyophilized high speed precipitate
T1 sequence (O62664 25-600): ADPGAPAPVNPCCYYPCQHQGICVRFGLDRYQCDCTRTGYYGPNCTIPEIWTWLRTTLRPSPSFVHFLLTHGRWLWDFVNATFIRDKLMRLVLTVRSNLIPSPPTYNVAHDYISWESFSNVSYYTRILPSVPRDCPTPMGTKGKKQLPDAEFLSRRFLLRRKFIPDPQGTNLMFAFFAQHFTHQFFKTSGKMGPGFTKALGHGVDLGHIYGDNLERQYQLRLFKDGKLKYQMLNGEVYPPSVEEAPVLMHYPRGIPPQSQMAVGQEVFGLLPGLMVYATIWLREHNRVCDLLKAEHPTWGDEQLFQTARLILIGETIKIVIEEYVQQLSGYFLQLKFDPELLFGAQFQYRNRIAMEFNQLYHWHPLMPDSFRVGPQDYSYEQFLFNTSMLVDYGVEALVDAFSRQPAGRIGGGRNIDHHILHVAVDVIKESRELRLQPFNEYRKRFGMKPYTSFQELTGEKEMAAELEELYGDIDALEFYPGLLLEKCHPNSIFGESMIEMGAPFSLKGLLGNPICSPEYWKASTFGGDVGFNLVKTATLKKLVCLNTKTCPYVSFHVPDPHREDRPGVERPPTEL

[3] = Acute toxicity in mice after oral administration; settings: mouse, in vivo, p.os, mortality assessed eight days after administration, read-out: LD50 (with confidence limits)
Procedure: The acute toxicity was determined in mice after oral administration. The mortality was assessed eight days after the administration and the LD50 (dose causing the death of 50% of the animals treated) was calculated according to the statistical method of Litchfield and Wilcoxon (J.Pharmacol.Exp.Ther. 96, 99, (1949)).

[4] = tested on: carrageenin induced edema; assay: Inhibition of carrageenin edema in rats; type: in vivo; settings: 1 hr before carrageenin
Procedure: Inhibitory activity toward carrageenin induced edema was assessed in rats using the technique of Winter C. A., Risley E. A., Nuss C. […] The compounds were orally administered suspended in 0.5% carboxymethylcellulose to 18 hrs fasting animals, 1 hr before the injection of carrageenin.

Cc1cc(/N=C(\Nc2nccs2)NC2CCCCC2)c2ccccc2n1 [SR 1368, N-Cyclohexyl-N"-4-(2-methylquinolyl)-N'-2-thiazolylguanidine]
Antipyretic index ([1]; oral dose 25 mg/kg): 2.2 | Antipyretic index ([1]; oral dose 50 mg/kg): 5.6 | % with lesions (stomachs; oral dose 25 mg/kg): 0% | Mean severity (stomachs; oral dose 25 mg/kg): 0 | % with lesions (stomachs; oral dose 50 mg/kg): 20% | Mean severity (stomachs; oral dose 50 mg/kg): 0.9 | % with lesions (stomachs; oral dose 100 mg/kg): 40% | Mean severity (stomachs; oral dose 100 mg/kg): 1.7 | Increase of pain threshold (pain threshold; oral dose 10 mg/kg): 12 mmHg | Increase of pain threshold (pain threshold; oral dose 30 mg/kg): 31 mmHg | Increase of pain threshold (pain threshold; oral dose 90 mg/kg): 68 mmHg | % Inhibition of the swelling, 18th day, primary ([2]; daily oral dose 5 mg/kg): 23.5% | % Inhibition of the swelling, 18th day, secondary ([2]; daily oral dose 5 mg/kg): 14.9% | % Inhibition of the swelling, 28th day, primary ([2]; daily oral dose 5 mg/kg): 21.4% | % Inhibition of the swelling, 28th day, secondary ([2]; daily oral dose 5 mg/kg): 32.1% | % Inhibition of the swelling, 18th day, primary ([2]; daily oral dose 10 mg/kg): 29.2% | % Inhibition of the swelling, 18th day, secondary ([2]; daily oral dose 10 mg/kg): 54.4% | % Inhibition of the swelling, 28th day, primary ([2]; daily oral dose 10 mg/kg): 42.7% | % Inhibition of the swelling, 28th day, secondary ([2]; daily oral dose 10 mg/kg): 68.7% | % Inhibition of the swelling, 18th day, primary ([2]; daily oral dose 30 mg/kg): 44.2% | % Inhibition of the swelling, 18th day, secondary ([2]; daily oral dose 30 mg/kg): 53.2% | % Inhibition of the swelling, 28th day, primary ([2]; daily oral dose 30 mg/kg): 69.4% | % Inhibition of the swelling, 28th day, secondary ([2]; daily oral dose 30 mg/kg): 69.2% | % Inhibition of the swelling, 18th day, primary ([2]; daily oral dose 60 mg/kg): 51.6% | % Inhibition of the swelling, 18th day, secondary ([2]; daily oral dose 60 mg/kg): 73.4% | % Inhibition of the swelling, 28th day, primary ([2]; daily oral dose 60 mg/kg): 74.2% | % Inhibition of the swelling, 28th day, secondary ([2]; daily oral dose 60 mg/kg): 82.6% | pIC50 (prostaglandin synthetase): 5.61 | LD50 at 192 h [3]: > 1000 mg/kg | % Inhibition 3 hrs after carrageenin ([4]; oral dose 25 mg/kg): 40% | % Inhibition 3 hrs after carrageenin ([4]; oral dose 50 mg/kg): 62% | % Inhibition 3 hrs after carrageenin ([4]; oral dose 100 mg/kg): 71%

COc1ccc2c(c1)c(CC(=O)O)c(C)n2C(=O)c1ccc(Cl)cc1 [Indomethacin, reference compound]
% with lesions (stomachs; oral dose 5 mg/kg): 20% | Mean severity (stomachs; oral dose 5 mg/kg): 1.3 | % with lesions (stomachs; oral dose 10 mg/kg): 70% | Mean severity (stomachs; oral dose 10 mg/kg): 2.8 | Increase of pain threshold (pain threshold; oral dose 1 mg/kg): 19 mmHg | Increase of pain threshold (pain threshold; oral dose 3 mg/kg): 34 mmHg | % Inhibition of the swelling, 18th day, primary ([2]; daily oral dose 0.3 mg/kg): 20.3% | % Inhibition of the swelling, 18th day, secondary ([2]; daily oral dose 0.3 mg/kg): 13.5% | % Inhibition of the swelling, 28th day, primary ([2]; daily oral dose 0.3 mg/kg): 25.9% | % Inhibition of the swelling, 28th day, secondary ([2]; daily oral dose 0.3 mg/kg): 29.7% | % Inhibition of the swelling, 18th day, primary ([2]; daily oral dose 1 mg/kg): 62.4% | % Inhibition of the swelling, 18th day, secondary ([2]; daily oral dose 1 mg/kg): 66.2% | % Inhibition of the swelling, 28th day, primary ([2]; daily oral dose 1 mg/kg): 80.5% | % Inhibition of the swelling, 28th day, secondary ([2]; daily oral dose 1 mg/kg): 76.8% | LD50 at 192 h [3]: 23 mg/kg | % Inhibition 3 hrs after carrageenin ([4]; oral dose 0.5 mg/kg): 34% | % Inhibition 3 hrs after carrageenin ([4]; oral dose 1 mg/kg): 42% | % Inhibition 3 hrs after carrageenin ([4]; oral dose 10 mg/kg): 65%
